Patent US20230324373A1, “PYRUVIC ACID OPTICAL PROBE, PREPARATION METHOD THEREFOR, AND APPLICATION THEREOF” (East China University of Science and Technology, priority 2020, published 2023)

Columns and labels:
[1] = titration curve of pyruvate optical sensor (concentration gradient pyruvate detection); format: binding; details: for change of the ratio of fluorescence intensity at 528 nm after excitation at 420 nm and at 485 nm: pyruvate concentration gradient; for Kd: ratio of fluorescence at 528 nm, excitation 420 nm and 485 nm, read-out: Kd (binding constant)
Method: 6. Take 100 μl of 1 μM protein solution, incubate at 37° C. for 5 minutes, add pyruvate for titration, and measure the fluorescence intensity of the protein emitted at 528 nm after fluorescence excitation at 485 nm. The fluorescence excitation and emission measurement of the samples were completed by a multifunctional fluorescence microplate reader.

[2] = specificity of purified pyruvate optical sensors; format: biochemical; details: purified sensor
[3] = fluorescence spectra of purified sensor treated with 0 mM and 10 mM pyruvate; format: biochemical; details: 10 minutes
Method: 7. Take 100 μl of 1 μM protein solution, incubate at 37° C. for 5 minutes, add pyruvate, and measure the absorption and fluorescence spectra of the protein. The determination of the absorption spectrum and fluorescence spectrum of the sample is completed by a spectrophotometer and a fluorescence spectrophotometer.
Exemplarily, after the purified pyruvate optical sensor PdhR(96-254)-192/194-M194V-cpYFP was treated with 0 mM and 10 mM pyruvate for 10 minutes, respectively, the fluorescence spectrum was detected using a fluorescence spectrophotometer.
Determination of excitation spectra: Excitation spectra were recorded with an excitation range of 350 nm to 500 nm and an emission wavelength of 530 nm, with readings every 5 nm.
Determination of emission spectra: excitation spectra were recorded with an fixed excitation wavelength of 420 nm and 490 nm and an emission range of 505-600 nm, read every 5 nm.

Substance | change of the ratio of fluorescence intensity at 528 nm after excitation at 420 nm and at 485 nm [1] | Kd [1] | specificity [2] | fluorescence intensity excited at 420 nm relative to 0 mM pyruvate [3] | fluorescence intensity excited at 490 nm relative to 0 mM pyruvate [3]
141/143-S190R/R191S/R192P: cpYFP at 141/143 of PdhR(96-254), mutations S190R/R191S/R192P | 3.1 times | 158 µM |  |  | 
141/143-R191S/R192T: cpYFP at 141/143 of PdhR(96-254), mutations R191S/R192T | 3.9 times | 164 µM |  |  | 
192/194-M194V: cpYFP at 192/194 of PdhR(96-254), mutation M194V (family SEQ ID NO: 22; coding sequence SEQ ID NO: 31) | 9.7 times | 475 µM | good specificity | 0.6 times | 5.8 times
192/194-M194V-S190E/R191N/R192D: cpYFP at 192/194 of PdhR(96-254), mutations M194V/S190E/R191N/R192D | 13.1 times | 1070 µM | good specificity |  | 
PdhR(96-254)-192/194-M194V/S190D/R191Y/R192T-cpYFP: cpYFP at 192/194 of PdhR(96-254), mutations M194V/S190D/R191Y/R192T |  |  | good specificity |  | 
141/143: optical sensor with cpYFP inserted at site 141/143 of PdhR(96-254) | 2.0 times | 28 µM | good specificity |  | 
141/143-S190P/R191H/R192P: cpYFP at 141/143 of PdhR(96-254), mutations S190P/R191H/R192P | 3.2 times | 84 µM |  |  | 
141/143-S190T/R191Q/R192E: cpYFP at 141/143 of PdhR(96-254), mutations S190T/R191Q/R192E | 2.7 times | 186 µM |  |  | 
192/195: optical sensor with cpYFP inserted at site 192/195 of PdhR(96-254) | 8.3 times | 19900 µM |  |  | 
141/143-S 190L/R191V: cpYFP at 141/143 of PdhR(96-254), mutations S190L/R191V | 4.2 times | 185 µM |  |  | 
